Results as given in US11090324B2, “Composition, for remedying female climacteric syndrome symptoms, comprising tectorigenin 7-O-Xylosylglucoside” (LG Household & Health Care Ltd., priority 2017, dated 2021).

Assays:
[1] = system: ovariectomy (OVX) female Sprague-Dawley rats; experiment: Serum CTX level (bone resorption marker) in ovariectomized rats, ELISA; type: in vivo, rat; conditions: for CTX: serum, 8 weeks, sham 42.3, OVX control 78.2
Protocol: 11-12 week-old female Sprague-Dawley rats were subjected to sham operation (group 1, n=10) or ovariectomy (OVX) (groups 2-8, n=10 per each group). After a week from the operation, 0.01 mL of a sample per body weight (g) of each rat was administered orally every day for 4 weeks. 17β-Estradiol (E2) was administered to the positive control group and a 1:5:5 mixture of the three compounds tectorigenin, tectoridin and tectorigenin 7-O-xylosylglucoside was administered to the test groups. 4 weeks after the administration, the skin temperature at 2 cm where the tail starts was measured using an infrared thermometer. [table] In order to measure CTX (C-terminal telopeptide of type I collagen), which is a marker related with bone resorption, the same rats as in Example 2 were orally administered with a sample for 8 weeks and then serum was collected. The CTX level in the serum was measured using the rat C-telopeptide of type I collagen ELISA kit (MyBioSource) according to the manufacturer's instructions.

[2] = system: ovariectomy (OVX) female Sprague-Dawley rats; experiment: Tail skin temperature of ovariectomized rats (vasomotor symptoms); type: in vivo, rat; conditions: oral 4 weeks, mixture 5 and 10 mg/kg/day, single compounds 10 mg/kg/day
From the text: It is known that 75% of […] women experience vasomotor symptoms. Facial flushing (hot flush) is the representative symptom where the skin on face, neck and chest is reddened abruptly, accompanied by unpleasant flushing and sweating. The change in the vasomotor symptoms can be evaluated by measuring the change in skin temperature. In an animal experiment, it can be measure by the skin temperature of the rat tail (Guidelines for evaluation of health functional food, ‘Helpful for health of […] women’, National Institute of Food and Drug Safety Evaluation). 11-12 week-old female Sprague-Dawley rats were subjected to sham operation (group 1, n=10) or ovariectomy (OVX) (groups 2-8, n=10 per each group). After a week from the operation, 0.01 mL of a sample per body weight (g) of each rat was administered orally every day for 4 weeks. 17β-Estradiol (E2) was administered to the positive control group and a 1:5:5 mixture of the three compounds tectorigenin, tectoridin and tectorigenin 7-O-xylosylglucoside was administered to the test groups. 4 weeks after the administration, the skin temperature at 2 cm where the tail starts was measured using an infrared thermometer. [table]

estrogen receptors = experiment: ERE (estrogen response element) reporter assay; type: cell-based; conditions: sum of the concentrations of the three compounds 10 ppm; with respect to negative control group (1.0)
Protocol: ERE (estrogen response element) reporter assay was performed to investigate the activity of the three compounds tectorigenin 7-O-xylosylglucoside, tectorigenin and tectoridin for estrogen receptors. Tectorigenin, tectoridin and tectorigenin 7-O-xylosylglucoside were treated at ratios described in Table 1 (the sum of the concentrations of the three compounds was 10 ppm).

Row | Activity for estrogen receptors Fold induction (estrogen receptors) | SMILES | CTX ([1]; 0.5 mg/kg/day oral) | CTX ([1]; 10 mg/kg/day oral) | Effect on increase in tail temperature caused by estrogen deficiency (in words) [2] | Effect on CTX level / bone resorption (in words) ([1]; oral 8 weeks, compared to the OVX group or to tectorigenin and tectoridin)
1 |  | C[C@]12CC[C@@H]3c4ccc(O)cc4CC[C@H]3[C@@H]1CC[C@@H]2O [17β-estradiol (E2), 17β-Estradiol, reference compound] | 52.6 ng/mL |  |  | 
2 |  | COc1c(O[C@@H]2O[C@H](CO)[C@@H](O)[C@H](O)[C@H]2O)cc2occ(-c3ccc(O)cc3)c(=O)c2c1O [Tectoridin, tectoridin] |  | 70.4 ng/mL |  | 
3 | 34 fold | COc1c(O[C@@H]2O[C@H](CO[C@@H]3OC[C@@H](O)[C@H](O)[C@H]3O)[C@@H](O)[C@H](O)[C@H]2O)cc2occ(-c3ccc(O)cc3)c(=O)c2c1O [Tectorigenin 7-O-xylosylglucoside, tectorigenin 7-O-xylosylglucoside] |  | 58.4 ng/mL | best effect of suppressing increase in the tail temperature | most inhibited bone resorption
4 |  | COc1c(O)cc2occ(-c3ccc(O)cc3)c(=O)c2c1O [Tectorigenin, tectorigenin] |  | 71.5 ng/mL |  | 
